Converted amounts (≈) assume the structure as drawn. Read-outs that look alike come from different tables or passages of the source.

Here are results for eleven compounds from patent US11903936B2, “Anti-malarial agents” (THE BOARD OF REGENTS OF THE UNIVERSITY OF TEXAS SYSTEM, priority 2019, dated 2024).

The target in one series is Human DHODH (Homo sapiens (Human), UniProt Q02127). The series is described as follows: DHODH kinetic analysis (DCIP assay). Type of series: biochemical. To be noted: 25° C.
A short description of a further series: in vitro. To be noted: human.
In another series the target is P. falciparum DHODH (Plasmodium falciparum (isolate 3D7), UniProt Q08210). It counts as biochemical. To be noted: 25° C., DCIP assay.
In a further series the target is P. vivax DHODH (Plasmodium vivax, UniProt A5K1N1). The series is described as follows: biochemical. Type of series: biochemical.
Another series concerns P. falciparum 3D7. The series is described as follows: P. falciparum growth and inhibition assay (SYBR Green). It counts as cell-based. The note with it: chloroquine-sensitive 3D7 strain, 72 h, albuMAX media.
Another series has as its target Mouse DHODH (Mus musculus (Mouse), UniProt O35435). The series is described as follows: DHODH kinetic analysis (DCIP assay). The note with it: 25° C. It counts as biochemical.
The next series concerns the target Rat DHODH (Rattus norvegicus (Rat), UniProt Q63707). The series is described as follows: DHODH kinetic analysis (DCIP assay). Type of series: biochemical. The note with it: 25° C.
The target of series [1] is T1, Dog DHODH (Canis lupus familiaris, UniProt A0A8I3MWX2). The note with it: read-out: Dog DHODH IC50; 25° C., DCIP assay.
Method: (§1) DHODH Kinetic Analysis. […] Inhibitor stocks (100 mM) were prepared in DMSO in amber bottles. A 3-fold dilution series was generated in DMSO from these stocks and then dispensed into assay buffer via a 1/100 dilution to generate a final concentration range of 0.001-100 μM (1% DMSO final). Data were collected using triplicate technical replicates and where indicated additional biological replicates were collected (the number of biological replicates is provided in parenthesis). IC50's were determined by fitting the data to log (inhibitor) vs. response equation Y=Bottom+(Top−Bottom)/(1+10^((X−Log IC50))) in GraphPad Prism.
In series [2] the target is T1, Dog DHODH. The series is described as follows: biochemical.
Method: as §1
Series [3] concerns parasitized human erythrocytes. The series is described as follows: in vivo efficacy in the humanized SCID mouse model. To be noted: for DOR (day of recrudescence): 50 mg/kg dose b.i.d. for 6 days; for CED90: estimated average blood concentration that induces no net parasite growth.
From the text: During the study, samples of peripheral blood were taken from mice to measure the concentration of compounds and/or their metabolites.
DoR was estimated by linear interpolation of % parasitemia the day before the rise to PO and the % parasitemia the day after reaching PO.
The subject of series [4] is P. falciparum clinical isolates. To be noted: ex vivo, separate study in Indonesia, previously reported; cited from earlier work.
Series [5] has as its system P. vivax clinical isolates. To be noted: ex vivo, separate study in Indonesia, previously reported; cited from earlier work.
The nature of series [6]: metabolic stability, Human Clint.
The nature of a further series: physchem. The note with it: pH 6.5, fassif.
Where [7] appears, read: 25° C., DCIP assay, read-out: P. vivax DHODH IC50.

Human DHODH, sequence (Q02127 whole entry): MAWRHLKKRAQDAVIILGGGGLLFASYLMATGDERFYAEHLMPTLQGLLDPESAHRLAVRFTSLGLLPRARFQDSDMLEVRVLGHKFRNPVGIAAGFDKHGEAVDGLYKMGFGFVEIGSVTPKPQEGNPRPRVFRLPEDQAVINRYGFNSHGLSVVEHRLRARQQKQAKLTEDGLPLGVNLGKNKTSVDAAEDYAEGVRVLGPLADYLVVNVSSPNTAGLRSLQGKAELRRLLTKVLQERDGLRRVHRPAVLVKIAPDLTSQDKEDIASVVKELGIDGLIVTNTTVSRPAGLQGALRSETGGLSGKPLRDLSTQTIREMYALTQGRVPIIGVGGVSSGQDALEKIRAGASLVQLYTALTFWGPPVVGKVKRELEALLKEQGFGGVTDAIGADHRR
T1 sequence (A0A8I3MWX2 1-406): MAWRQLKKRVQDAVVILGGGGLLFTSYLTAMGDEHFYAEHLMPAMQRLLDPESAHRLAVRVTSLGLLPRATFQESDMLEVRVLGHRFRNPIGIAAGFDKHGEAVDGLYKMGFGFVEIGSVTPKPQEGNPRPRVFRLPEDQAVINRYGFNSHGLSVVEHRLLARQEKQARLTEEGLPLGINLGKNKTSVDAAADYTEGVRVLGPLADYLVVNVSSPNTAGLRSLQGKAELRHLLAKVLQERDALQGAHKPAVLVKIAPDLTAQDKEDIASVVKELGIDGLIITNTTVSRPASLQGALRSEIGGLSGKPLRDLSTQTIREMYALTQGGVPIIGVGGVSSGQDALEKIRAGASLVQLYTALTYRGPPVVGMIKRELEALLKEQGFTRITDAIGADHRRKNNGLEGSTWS
P. vivax DHODH, sequence (A5K1N1 1-572): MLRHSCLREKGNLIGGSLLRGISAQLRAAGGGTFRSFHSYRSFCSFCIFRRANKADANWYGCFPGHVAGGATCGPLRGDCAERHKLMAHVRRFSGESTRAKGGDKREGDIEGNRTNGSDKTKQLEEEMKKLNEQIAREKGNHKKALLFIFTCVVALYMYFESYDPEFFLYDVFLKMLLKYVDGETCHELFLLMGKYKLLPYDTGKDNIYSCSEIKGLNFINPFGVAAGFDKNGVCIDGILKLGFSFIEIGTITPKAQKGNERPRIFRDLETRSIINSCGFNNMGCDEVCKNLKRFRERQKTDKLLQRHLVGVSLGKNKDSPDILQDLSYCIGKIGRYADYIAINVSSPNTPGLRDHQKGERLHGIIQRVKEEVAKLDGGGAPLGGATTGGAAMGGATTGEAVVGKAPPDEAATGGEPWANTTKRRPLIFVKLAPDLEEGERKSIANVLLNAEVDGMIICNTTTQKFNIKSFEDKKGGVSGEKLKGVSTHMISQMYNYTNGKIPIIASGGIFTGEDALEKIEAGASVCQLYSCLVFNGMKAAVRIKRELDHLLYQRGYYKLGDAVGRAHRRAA
P. falciparum DHODH, sequence (Q08210 24-569 limits assumed): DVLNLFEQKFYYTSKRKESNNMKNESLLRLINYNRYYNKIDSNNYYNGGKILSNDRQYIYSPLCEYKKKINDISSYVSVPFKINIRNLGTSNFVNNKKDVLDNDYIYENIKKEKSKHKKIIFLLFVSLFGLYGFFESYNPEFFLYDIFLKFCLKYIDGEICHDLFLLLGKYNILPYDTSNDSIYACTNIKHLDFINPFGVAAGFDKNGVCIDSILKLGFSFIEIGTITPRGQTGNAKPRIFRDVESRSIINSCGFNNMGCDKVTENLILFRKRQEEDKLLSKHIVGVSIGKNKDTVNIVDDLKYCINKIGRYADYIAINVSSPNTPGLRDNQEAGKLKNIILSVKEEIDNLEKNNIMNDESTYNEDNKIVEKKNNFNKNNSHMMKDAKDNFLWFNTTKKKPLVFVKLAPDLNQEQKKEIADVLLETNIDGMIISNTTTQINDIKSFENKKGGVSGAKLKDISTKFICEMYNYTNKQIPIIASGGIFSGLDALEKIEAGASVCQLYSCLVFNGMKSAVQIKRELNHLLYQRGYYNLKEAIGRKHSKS
Mouse DHODH, sequence (O35435 whole entry): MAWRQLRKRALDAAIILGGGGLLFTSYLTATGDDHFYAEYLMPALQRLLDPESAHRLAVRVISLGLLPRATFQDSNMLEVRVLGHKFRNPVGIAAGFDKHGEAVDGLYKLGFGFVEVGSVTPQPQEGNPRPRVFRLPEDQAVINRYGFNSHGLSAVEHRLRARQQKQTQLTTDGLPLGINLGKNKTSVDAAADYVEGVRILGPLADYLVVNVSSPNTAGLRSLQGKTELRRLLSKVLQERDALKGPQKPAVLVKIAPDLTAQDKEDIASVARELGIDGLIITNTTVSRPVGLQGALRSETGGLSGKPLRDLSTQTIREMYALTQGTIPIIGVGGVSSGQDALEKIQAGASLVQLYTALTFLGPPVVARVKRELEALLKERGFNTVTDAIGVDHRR
Rat DHODH, sequence (Q63707 whole entry): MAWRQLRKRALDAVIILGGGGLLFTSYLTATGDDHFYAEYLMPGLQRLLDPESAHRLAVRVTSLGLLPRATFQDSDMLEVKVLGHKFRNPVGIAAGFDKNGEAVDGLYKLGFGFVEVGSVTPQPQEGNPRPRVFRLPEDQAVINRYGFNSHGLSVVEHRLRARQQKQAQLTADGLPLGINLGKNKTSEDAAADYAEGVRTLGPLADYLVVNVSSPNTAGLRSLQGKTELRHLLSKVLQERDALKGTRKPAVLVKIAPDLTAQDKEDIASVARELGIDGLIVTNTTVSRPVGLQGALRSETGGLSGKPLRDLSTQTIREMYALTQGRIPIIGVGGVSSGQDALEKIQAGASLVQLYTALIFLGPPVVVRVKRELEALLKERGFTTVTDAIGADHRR
Method for Human DHODH: as §1
Method for Mouse DHODH: as §1
Method for P. falciparum 3D7: P. falciparum growth and inhibition assays. […] DSMO inhibitor stocks (as above) were diluted in DMSO using a 2 or 3-fold dilution series and then dispensed into media at 10× the final concentrations. A second step into media led to final inhibitor concentrations ranging from 0.001-30 μM and a final DMSO concentration of 0.2%. […] Data were collected using triplicate technical replicates and where indicated additional biological replicates were collected (the number of biological replicates is provided in parenthesis).
Method for P. falciparum DHODH: Inhibitor stocks (100 mM) were prepared in DMSO in amber bottles. A 3-fold dilution series was generated in DMSO from these stocks and then dispensed into assay buffer via a 1/100 dilution to generate a final concentration range of 0.001-100 μM (1% DMSO final). Data were collected using triplicate technical replicates and where indicated additional biological replicates were collected (the number of biological replicates is provided in parenthesis). IC50's were determined by fitting the data to log (inhibitor) vs. response equation Y=Bottom+(Top−Bottom)/(1+10^((X−Log IC50))) in GraphPad Prism.
Method for P. vivax DHODH: as §1
Method for Rat DHODH: as §1

By IC50 is commonly meant the concentration at which inhibition is half-maximal. What is called microsomal CLint is a measure of how fast metabolising enzymes remove a compound, apart from limits set by blood flow. The low end stands for slow turnover, the high end for rapid turnover. For the compound `Cc1cc(C(C)NC(=O)c2[nH]cc(C3(c4ccc(C(F)(F)F)nc4)CC3)c2C)n[nH]1` (single isomer, unassigned) [Compound 11, 3-methyl-N-[1-(5-methyl-1H-pyrazol-3-yl)ethyl]-4-{1-[6-(trifluoromethyl)pyridine-3-yl]cyclopropyl}-1H-pyrrole-2-carboxamide], the half-maximal inhibitory concentration (IC50) against Human DHODH was over 100 µM. For the same compound, the microsomal CLint in “in vitro” is 40 µL/min/mg.

For `Cc1c(C2(c3ccc(C(F)(F)F)nc3)CC2)c[nH]c1C(=O)NC(C)c1c[nH]cn1` (single isomer, unassigned) [Compound 20, N-(1-(1H-imidazol-4-yl)ethyl)-3-methyl-4-(1-(6-(trifluoromethyl)pyridin-3-yl)cyclopropyl)-1H-pyrrole-2-carboxamide], the IC50 at Human DHODH is over 100 µM. Besides, the microsomal CLint in “in vitro” was 35 µL/min/mg.

By EC50 is commonly meant the midpoint of the concentration-response curve. As for “N-(1-(1H-1,2,4-triazol-3-yl) ethyl)-4-(3-fluoro-4-(trifluoromethyl)benzyl)-3-methyl-1H-pyrrole-2-carboxamide [Compound 5]”, the IC50 is 0.11 µM on P. falciparum DHODH, 0.061 µM on P. vivax DHODH (setting [7]) and over 100 µM at Human DHODH. Moreover, the concentration for a half-maximal effect (EC50) with P. falciparum 3D7 amounted to 0.039 µM.

On to `Cc1c(C2(c3ccc(C(F)(F)F)nc3)CC2)c[nH]c1C(=O)NC(C)c1cc(C(N)=O)[nH]n1` (stereo not drawn) [Compound 14], for which the IC50 against P. falciparum DHODH is 0.14 ± 0.057 µM; on P. vivax DHODH (setting [7]), 0.17 µM; against Human DHODH it was over 100 µM; on Mouse DHODH it was over 100 µM; on Rat DHODH, over 100 µM; on Dog DHODH [1], over 100 µM.

In turn, `Cc1c(C2(c3ccc(C(F)(F)F)nc3)CC2)c[nH]c1C(=O)NC(C)c1cn[nH]c1` (single isomer, unassigned) [Compound 8, N-(1-(1H-pyrazol-4-yl)ethyl)-3-methyl-4-(1-(6-(trifluoromethyl)pyridin-3-yl)cyclopropyl)-1H-pyrrole-2-carboxamide] yielded an IC50 against Human DHODH of over 100 µM. This compound came in with an intrinsic metabolic clearance (microsomal CLint) in the series “in vitro” of 66 µL/min/mg.

In the case of `Cc1cc(C(C)NC(=O)c2[nH]cc(Cc3ccc(C(F)(F)F)nc3)c2C)no1` (single isomer, unassigned) [Compound 29, 3-methyl-N-(1-(5-methylisoxazol-3-yl)ethyl)-4-((6-(trifluoromethyl)pyridin-3-yl)methyl)-1H-pyrrole-2-carboxamide], the IC50 on Human DHODH, on Mouse DHODH, against Rat DHODH and against Dog DHODH [2] was over 100 µM in each case. This compound registered a microsomal CLint in the series “in vitro” of 29 µL/min/mg.

Consider `Cc1c(C2(c3ccc(C(F)(F)F)nc3)CC2)c[nH]c1C(=O)NC(C)c1cc(C#N)[nH]n1` (single isomer, unassigned) [Compound 17, N-(1-(5-cyano-1H-pyrazol-3-yl)ethyl)-3-methyl-4-(1-(6-(trifluoromethyl)pyridin-3-yl)cyclopropyl)-1H-pyrrole-2-carboxamide], for which the IC50 against Human DHODH is over 100 µM. The microsomal CLint in “in vitro” came out at 16 µL/min/mg.

Turning to `Cc1cc(Nc2ccc(S(F)(F)(F)(F)F)cc2)n2nc(C(C)(F)F)nc2n1` [DSM265, 2-(1,1-difluoroethyl)-5-methyl-N-[4-(pentafluoro-λ^6-sulfanyl)phenyl]-[1,2,4]triazolo[1,5-a]pyrimidin-7-amine, reference compound], in [3] (SCID mouse), the “DOR (day of recrudescence)” value was 21. This compound came in with an AUCED90 in series [3] (SCID mouse, b.i.d. for 6 days) of 35.4 μM · h/day. The compound also gave an ED90 in series [3] (SCID mouse, b.i.d. for 6 days, clears 90% of parasites 24 h post final dose on day 7) of 16.7 mg/kg. Moreover, in series [3] (SCID mouse, b.i.d. for 6 days), the CED90 is 1.48 µM/day. Moreover, where the note is “FaSSIF, pH 6.5, 5 h”, the “FaSSIF Solubility pH 6.5 5 h” value was 5.1 μg/ml. Moreover, the EC50 in series [4] was 0.19 µM; in [5], 0.92 µM. In the series “in vitro”, this compound gave a microsomal CLint of under 7 µL/min/mg.

Consider `Cc1c(Cc2ccc(C(F)(F)F)nc2)c[nH]c1C(=O)NC(C)c1cn[nH]c1` (stereo not drawn) [Compound 32], for which the IC50 on P. falciparum DHODH is 0.047 ± 0.0079 µM; on P. vivax DHODH (setting [7]), 0.043 µM; on Human DHODH, over 100 µM; against Mouse DHODH, over 100 µM; at Rat DHODH it was over 100 µM; on Dog DHODH [1] it was over 100 µM. For the setting “pH 6.5”, the “FaSSIF Solubility pH 6.5 5 h” value turned out to be 34 μg/ml. Besides, in series [6], the “Human Clint” value is recorded as 20 μL/min/mg protein.

Usually solubility stands for the concentration that dissolves in the medium under given conditions. Low values mean a poorly soluble substance, high ones a readily soluble substance. For `Cc1c(Cc2ccc(C(F)(F)F)nc2)c[nH]c1C(=O)NC(C)c1cnn(C)c1` (single isomer, unassigned) [Compound 35, 3-methyl-N-(1-(1-methyl-1H-pyrazol-4-yl)ethyl)-4-((6-(trifluoromethyl)pyridin-3-yl)methyl)-1 H-pyrrole-2-carboxamide], the IC50 is 0.036 µM at P. vivax DHODH; over 100 µM on Human DHODH; over 100 µM at Mouse DHODH; over 100 µM against Rat DHODH; over 100 µM against Dog DHODH [2]. This compound also showed a solubility in the series “physchem” of 60 µg/mL (≈ 153 µM).

`Cc1c(C2(c3ccc(C(F)(F)F)nc3)CC2)c[nH]c1C(=O)NC(C)c1nc[nH]n1` (single isomer, unassigned) [Compound 2, 3-methyl-N-[1-(1H-1,2,4-triazol-3-yl)ethyl]-4-{1-[6-(trifluoromethyl)pyridin-3-yl]cyclopropyl}-1H-pyrrole-2-carboxamide]: the IC50 against Human DHODH, on Mouse DHODH, against Rat DHODH and against Dog DHODH [2] was over 100 µM throughout. For the same compound, the “DOR (day of recrudescence)” value in series [3] (SCID mouse) came to 22. This compound also had an AUCED90 in series [3] (SCID mouse, b.i.d. for 6 days) of 35.6 μM · h/day. Also, the CED90 in series [3] (SCID mouse, b.i.d. for 6 days) is 1.48 µM/day. This compound also showed an ED90 in series [3] (mouse, in vivo) of 25.6 mg/kg. Further, the microsomal CLint in “in vitro” was determined as 11 µL/min/mg.
